This note sets out measurements from patent US9376418B2, “Substituted pyridine spleen tyrosine kinase (SYK) inhibitors” (Merck Sharp & Dohme Corp., priority 2012, dated 2016).

pIC50: −log10 of the molar value.

This assay deals with T1, recombinant human GST-SYK (Homo sapiens, UniProt P43405).
T1 construct: purchased Carna Biosciences 08-176
Kind of assay: Homogeneous Time-Resolved Fluorescence (HTRF) assay for the recombinant human Syk enzyme. It is filed as biochemical. The settings on record: HTRF assay, recombinant human GST-SYK; IC50 given as class symbols; read-out: rhSYK Activity. The essentials: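 GST-hSYK ([…]) was preincubated with inhibitor (0.1% DMSO) for 10 min at room temperature in Tris-HCl pH 7.5 with tween 20 and DTT. Biotinylated peptide (250 nM), Mg (5 mM) and ATP (25 μM) were added for 45 min. The reaction was quenched with EDTA, and phosphotyrosine was read by Eu-antibody/SA-APC HTRF after 30 min.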
On to `Cc1cc(Nc2nccc(C(F)(F)F)n2)cc(-c2ccc(C(=O)N3CC[S+]([O-])CC3)nc2)c1` [Example 16.49, N-(3-methyl-5-{6-[(1-oxidothiomorpholin-4-yl)carbonyl]pyridin-3-yl}phenyl)-4-(trifluoromethyl)pyrimidin-2-amine], for which the pIC50 was above 7.00.

On to `Cc1cc(Nc2nccc(C(F)(F)F)n2)cc(-c2ccc(N3CC[C@H](O)[C@H]3C(=O)O)nc2)c1` [Example 7.134, (3S)-3-hydroxy-1-[5-(3-methyl-5-{[4-(trifluoromethyl)pyrimidin-2-yl]amino}phenyl)pyridin-2-yl]-L-proline], for which the pIC50 was above 7.00.

As for `Cc1cc(Nc2nccc(C(F)(F)F)n2)cc(-c2ccc(N3CCC(C(=O)N4CCC(C(=O)O)CC4)CC3)nc2)c1` [Example 7.141, 1-({1-[5-(3-methyl-5-{[4-(trifluoromethyl)pyrimidin-2-yl]amino}phenyl)pyridin-2-yl]piperidin-4-yl}carbonyl)piperidine-4-carboxylic acid], the pIC50 was above 7.00.

For the compound `CC(O)c1ccc(-c2cc(Nc3nccc(C(F)(F)F)n3)cc(C(=O)O)c2)cn1` (stereo not shown) [Example 26.1, 3-[6-(1-Hydroxyethyl)pyridin-3-yl]-5-{[4-(trifluoromethyl)pyrimidin-2-yl]amino}benzoic acid], the pIC50 was 6.00 to 7.00.

Turning to `Cc1cc(Nc2nccc(C(F)(F)F)n2)cc(-c2ccc(C(=O)N3CCCC(C)(O)C3)nc2)c1` (stereo not shown) [Example 16.47, 3-methyl-1-{[5-(3-methyl-5-{[4-(trifluoromethyl)pyrimidin-2-yl]amino}phenyl)pyridin-2-yl]carbonyl}piperidin-3-ol], the pIC50 is above 7.00.

On to `CC(=O)NCCN(C)c1ccc(-c2cc(C)cc(Nc3nccc(C(F)(F)F)n3)c2)cn1` [Example 7.50, N-(2-{methyl[5-(3-methyl-5-{[4-(trifluoromethyl)pyrimidin-2-yl]amino}phenyl)pyridin-2-yl]amino}ethyl)acetamide], for which the pIC50 was above 7.00.

For the compound `Cc1cc(Nc2nccc(C(F)(F)F)n2)cc(-c2ccc(NC3CCNC3=O)nc2)c1` (stereo not shown) [Example 7.22, 3-{[5-(3-methyl-5-{[4-(trifluoromethyl)pyrimidin-2-yl]amino}phenyl)pyridin-2-yl]amino}pyrrolidin-2-one], the pIC50 was above 7.00.

On to `Cc1cc(Nc2nccc(C(F)(F)F)n2)cc(-c2ccc(N3CCCC3C(=O)O)nc2)c1` (racemic) [Example 7.119, 1-[5-(3-methyl-5-{[4-(trifluoromethyl)pyrimidin-2-yl]amino}phenyl)pyridin-2-yl]proline], for which the pIC50 is above 7.00.

Consider `Cc1cc(Nc2nccc(C(F)(F)F)n2)cc(-c2ccc(NCCC(N)=O)nc2)c1` [Example 7.43, N~3~-[5-(3-methyl-5-{[4-(trifluoromethyl)pyrimidin-2-yl]amino}phenyl)pyridin-2-yl]-beta-alaninamide], for which the pIC50 was above 7.00.

`Cc1cc(Nc2nccc(C3CC3)n2)cc(-c2ccc(C(C)(O)[C@H]3CC[C@H](C(=O)O)CC3)nc2)c1` (single isomer, unassigned) [Example 9.19, trans-4-[(1R or 1S)-1-(5-{3-[(4-cyclopropylpyrimidin-2-yl)amino]-5-methylphenyl}pyridin-2-yl)-1-hydroxyethyl]cyclohexanecarboxylic acid]: the pIC50 was above 7.00.

Take `Cc1cc(Nc2nccc(C(F)(F)F)n2)cc(-c2ccc(N[C@@H](C(=O)O)C(C)C)nc2)c1` [Example 7.90, N-[5-(3-methyl-5-{[4-(trifluoromethyl)pyrimidin-2-yl]amino}phenyl)pyridin-2-yl]-D-valine]: the pIC50 is above 7.00.

Consider `NC(=O)c1ccnc(-c2cccc(Nc3nccc(C(F)(F)F)n3)c2)c1` [Example 2.7, 2-(3-{[4-(trifluoromethyl)pyrimidin-2-yl]amino}phenyl)pyridine-4-carboxamide], for which the pIC50 is 6.00 to 7.00.

As to `CCNC(=O)Nc1cc(Nc2nccc(C(F)(F)F)n2)cc(-c2ccc(C(=O)O)nc2)c1` [Example 6.6, 5-(3-[(ethylcarbamoyl)amino]-5-{[4-(trifluoromethyl)pyrimidin-2-yl]amino}phenyl)pyridine-2-carboxylic acid], the pIC50 was above 7.00.
